In ChEMBL document CHEMBL1201862, “PubChem BioAssay data set” (2004):
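Protocol summary: plate cells (96-well), add compound at 5 concentrations, incubate 48 h, interpolate endpoints linearly. At the GI50, growth is halved.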 Active and inactive are the calls of the source. Cut-off read from the data, not from the text of the source: active = GI50 up to about 1.1 µM and inactive = higher.

Experiments:
Test in all cases: NCI anticancer screen, dose series, 48 h
NCI-H23 = tested on: NCI-H23
SK-MEL-5 = tested on: SK-MEL-5
786-0 = tested on: 786-0
M14 = tested on: M14
HT-29 = tested on: HT-29
COLO 205 = tested on: COLO 205
PC-3 = tested on: PC-3
HCT-15 = tested on: HCT-15
SK-MEL-2 = tested on: SK-MEL-2
EKVX = tested on: EKVX
SN12C = tested on: SN12C
Hs-578T = tested on: Hs-578T
TK-10 = tested on: TK-10
NCI-H460 = tested on: NCI-H460
OVCAR-5 = tested on: OVCAR-5
U-251 = tested on: U-251
NCI-H522 = tested on: NCI-H522
HCT-116 = tested on: HCT-116
SF-539 = tested on: SF-539
SW-620 = tested on: SW-620

| Compound | GI50 (NCI-H23) | GI50 (SK-MEL-5) | GI50 (786-0) | GI50 (M14) | GI50 (HT-29) | GI50 (COLO 205) | GI50 (PC-3) | GI50 (HCT-15) | GI50 (SK-MEL-2) | GI50 (EKVX) | GI50 (SN12C) | GI50 (Hs-578T) | GI50 (TK-10) | GI50 (NCI-H460) | GI50 (OVCAR-5) | GI50 (U-251) | GI50 (NCI-H522) | GI50 (HCT-116) | GI50 (SF-539) | GI50 (SW-620) |
| --- | --- | --- | --- | --- | --- | --- | --- | --- | --- | --- | --- | --- | --- | --- | --- | --- | --- | --- | --- | --- |
| C=C[C@@]1(O)CCCC[C@@H]1CC(Sc1ccccc1)Sc1ccccc1 | 17.2 µM (inactive) | 17.1 µM (inactive) | 22.2 µM (inactive) | 19.4 µM (inactive) | 19.4 µM (inactive) | 18.3 µM (inactive) | 14.3 µM (inactive) | 17.1 µM | 16 µM (inactive) | 15.3 µM (inactive) | 18.2 µM (inactive) | 15.5 µM (inactive) | 15.7 µM (inactive) | 13.4 µM (inactive) | 18.8 µM (inactive) | 16.7 µM (inactive) | 13.4 µM (inactive) | 15.6 µM (inactive) | – | – |
| CN(C)C(=S)/N=c1\ss/c(=N\C(=S)N(C)C)n1-c1cccc(Cl)c1 | > 100 µM (inactive) | > 100 µM (inactive) | > 100 µM (inactive) | > 100 µM (inactive) | > 100 µM (inactive) | > 100 µM (inactive) | – | > 100 µM | > 100 µM (inactive) | > 100 µM (inactive) | > 100 µM (inactive) | – | > 100 µM (inactive) | > 100 µM (inactive) | > 100 µM (inactive) | > 100 µM (inactive) | > 100 µM (inactive) | > 100 µM (inactive) | > 100 µM (inactive) | > 100 µM (inactive) |
| CC1=Nc2c(O)nc(S)nc2NC(c2ccc(Cl)c(Cl)c2)C1 (centres undefined) | 19.4 µM (inactive) | 23.6 µM (inactive) | 17.7 µM (inactive) | 16.9 µM (inactive) | 24.3 µM (inactive) | 18 µM (inactive) | – | 33.7 µM | > 100 µM (inactive) | 28.9 µM (inactive) | 20.1 µM (inactive) | – | > 55.5 µM (inactive) | 67.8 µM (inactive) | > 100 µM (inactive) | 17.3 µM (inactive) | 74.3 µM (inactive) | 15.8 µM (inactive) | 21.1 µM (inactive) | 23.5 µM (inactive) |
